Source: EP4790048A1, “S1PR4 REGULATOR COMPOUND FOR AUTOIMMUNE DISEASE TREATMENT AND APPLICATION THEREOF” (Shengyuan Zetong (Shanghai) Pharmaceutical Co., Ltd, priority 2023, dated 2025)

Tests used:
[1] = test system: BALB/c mice; test: DSS-induced acute ulcerative colitis in mice (Example 6); assay type: in vivo; settings: for survival rate: 8 mice, model group 75%
Procedure: From Day 0 to Day 14 of the experiment, the mice were weighed daily and their blood and stool conditions were observed, scored and recorded according to the following table (Table 1). Random grouping was performed on Day 1, and modeling was conducted from Day 1 to Day 7. All groups except the Control group were given 3.5% DSS water daily. Re-grouping was performed on Day 8. The Control group and Model group received no medication and were given tap water; the other groups were administered intragastrically with 1 mg/kg, 3 mg/kg, 9 mg/kg, and SASP (Sulfasalazine or Salicylazosulfapyridine) 500 mg/kg, respectively. On Day 15, blood and colon samples were collected, colon length was measured, and a 1-2 cm segment of the colon was fixed with formaldehyde.
(§1) • BALB/c mice, male, 20-22 g • Dextran sulfate sodium MW: 36,000-50,000 (DSS) • 30 1 mg/kg, 3 mg/kg, 9 mg/kg, SASP (500 mg/kg) indicators were observed.
(§2) (1) Clinical Symptom Score: The mice were weighed daily and their blood and stool were observed during the experiment for DAI scoring, which was graded and recorded according to the following table (Table 1).
(§3) (2) After the experiment, the colon was removed, its length measured and weight recorded. The colon-to-body weight index (colon weight/body weight × 100%) and colon swelling rate (colon weight/length × 100%) were calculated.
(§4) Colonic tissue approximately 1 cm from the anal margin (0.5 cm) and ileocecal region tissue were collected for histopathological examination. After H&E staining, the tissues were scored under single-blind conditions to evaluate the level of distal colon inflammation and tissue damage; scoring was performed according to the Ameho criteria and calculated as follows: • Score 0: No abnormal findings in the texture. • Score 1: Mild inflammatory infiltration of the mucosa and/or submucosa (mixed with neutrophils), submucosal edema, punctate mucosal erosion, accompanied by capillary proliferation. The muscularis mucosae is intact. • Score 2: Changes of Score 1 account for more than 50%. • Score 3: Obvious inflammatory infiltration and edema (neutrophils are often predominant); ulcers usually penetrate the muscularis mucosae to reach the submucosa. There is little inflammatory cell infiltration in the muscularis propria and no muscle necrosis. • Score 4: Changes of Score 3 account for more than 50%. • Score 5: Large confluent ulcers with coagulative necrosis, massive neutrophil infiltration at the margins and few monocytes. Necrotic tissue penetrates the muscularis propria. • Score 6: Changes of Score 5 account for more than 50% of the specimen.
The fence function of Occludin separates the apical and basolateral sides of the epithelial cell plasma membrane, restricting the free flow of lipids on the cell membrane, facilitating the formation of cell polarity, maintaining the impermeability and rigidity of the intestinal mucosa, and preventing the entry of pathogenic microorganisms. The barrier function of Occludin can regulate the transport of small molecules and maintain tissue homeostasis. […]

[2] = test system: BALB/c mice; test: DSS-induced chronic ulcerative colitis in mice (Example 6); assay type: in vivo
Excerpt: BALB/c mice were acclimatized for 7 days before the experiment. From Day 7 to Day 50 of the experiment, the mice were weighed daily and their blood and stool conditions were observed, scored and recorded according to the following table (Table 1). After random grouping, all groups except the Control group were given free access to 2-3% DSS solution for modeling from Day 7 to Day 14, while the Control group received normal drinking water during the same period. One cycle lasted 14 days and was repeated 3 times. Re-grouping was performed at the start of the final cycle to initiate drug administration. The Control group and Model group received no drug but the same solvent. The other groups were intragastrically administered 1 mg/kg, 3 mg/kg, 9 mg/kg, and SASP 500 mg/kg respectively. On Day 45, blood and colon samples were collected, colon length was measured, and a 1-2 cm colon segment was fixed with formaldehyde.
as §1, §2, §3, §4
The fence function of Occludin separates the apical and basolateral sides of the epithelial cell plasma membrane, restricting the free flow of lipids on the cell membrane, facilitating the formation of cell polarity, maintaining the impermeability and rigidity of the intestinal mucosa, and preventing the entry of pathogenic microorganisms. The barrier function of Occludin can regulate the transport of small molecules and maintain tissue homeostasis. The expression and distribution of related proteins are detected by immunohistochemistry.
During modeling, the body weight of mice in the control group increased steadily. In the model group, during the first modeling period, mice were given 3% DSS drinking water ad libitum for 7 days, followed by tap water ad libitum for 7 days. On Day 4 of modeling, the body weight of mice began to decrease generally, reaching the lowest point on Day 8, and then started to rise. During the second modeling period, mice were given 2% DSS drinking water ad libitum for 7 days, followed by tap water ad libitum for 7 days. […]

For `CCc1cc(/C(C)=N/OCc2ccc(-c3ccccc3)c(C)c2)ccc1CN1CC[C@H](C(=O)O)C1` [Compound 30], the survival rate ([1]; 30 1 mg/kg intragastric from Day 8) was 87.5%, the colon length ([1]; 30 1 mg/kg, p<0.05 vs Model group) was “significantly inhibited DSS-induced colon shortening” and the survival rate ([1]; 30 3 mg/kg intragastric from Day 8) was 87.5%. For the same compound, the colon length ([1]; 30 3 mg/kg, p<0.01 vs Model group) was “significantly inhibited DSS-induced colon shortening”, the “total DAI scores over 14 days” value ([1]; 30 3 mg/kg, vs model group) was “significantly lower” and the survival rate ([1]; 30 9 mg/kg intragastric from Day 8) was 75%. The body weight recovery ([1]; 30 at 3 mg/kg, SASP at 500 mg/kg, vs model group) was “faster body weight recovery with a greater rebound amplitude”, the “colon pathological changes (H&E staining)” value (“colon pathological changes” for short) ([1]; 30 at 9 mg/kg) was “obvious inflammatory cell infiltration and reduced goblet cells” and the “daily DAI score” value ([1]; 30 treatment groups, SASP 500 mg/kg, vs model group) was “decreased more rapidly”. The “colon pathological changes” value ([1]; Compound 30 1 mg/kg) was “no obvious inflammatory cell infiltration was observed”, the “colon pathological changes” value ([1]; Compound 30 3 mg/kg) was “no obvious inflammatory cell infiltration was observed” and the “Occludin expression in colonic mucosa (immunohistochemistry)” value ([1]; vs Model group) was “the expression of Occludin was increased”. For the same compound, the “Occludin protein in colon (Western blotting)” value ([1]; vs Model group) was “increase the expression of Occludin”, the “body weight during administration” value ([2]; 30 1 mg/kg) was “remained relatively stable during administration” and the “body weight during administration” value ([2]; 30 3 mg/kg) was “remained relatively stable during administration”. The “body weight change rate” value ([2]; 30 3 mg/kg, before and after administration, vs model group) was “significantly increased”, the “total DAI scores of the administration for 14 days” value ([2]; 30 3 mg/kg, vs model group) was “significantly lower” and the “colon pathological changes” value ([2]; 30 at 1 mg/kg) was “no obvious inflammatory cell infiltration was observed”. The “colon pathological changes” value ([2]; 30 at 3 mg/kg) was “no obvious inflammatory cell infiltration was observed”, the “daily DAI score” value ([2]; 30 treatment group, SASP 500 mg/kg, vs model group) was “decreased more rapidly” and the body weight recovery ([2]; 30 treatment groups (1, 3, 9 mg/kg), SASP 500 mg/kg, vs model group) was “recovered rapidly and increased substantially”. The colon length ([2]; Compound 30 3 mg/kg, vs Model group) was “significantly inhibited DSS-induced colon shortening”, the colon length ([2]; Compound 30 9 mg/kg, vs Model group) was “significantly inhibited DSS-induced colon shortening” and the “Occludin expression in colonic mucosa (immunohistochemistry)” value ([2]; vs Model group) was “the expression of Occludin was increased”.
